According to ChEMBL document CHEMBL6092142, “Discovery and preclinical profile of YK-2168, a differentiated selective CDK9 inhibitor in clinical development” (Bioorg Med Chem Lett, 2024):
≈ marks a conversion by molar mass, not a printed value. Calls of active or inactive are those of the source. The rule behind the calls is not given here.

Key:
[1] = Selectivity index, ratio of IC50 for inhibition of CDK1 (unknown origin) to IC50 for inhibition of CDK9 (unknown origin)
[2] = Selectivity index, ratio of IC50 for inhibition of CDK2 (unknown origin) to IC50 for inhibition of CDK9 (unknown origin)
[3] = system: MV4-11; test: Antiproliferative activity against human MV4-11 cells assessed as cell viability; type: functional, cell-based
[4] = Volume of distribution in CD-1 mouse at 2 mg/kg, iv; type: ADME, organism-based; conditions: CD-1, mouse, in vivo, read-out: Vd
[5] = Clearance in CD-1 mouse at 2 mg/kg, iv; type: ADME, organism-based; conditions: in vivo
[6] = Half life in CD-1 mouse at 2 mg/kg, iv; type: ADME, organism-based; conditions: CD-1, mouse, in vivo
[7] = AUC (0 to 24 hrs) in CD-1 mouse at 2 mg/kg, iv; type: ADME, organism-based; conditions: CD-1, mouse, in vivo
[8] = biological target: Cyclin-dependent kinase 1 (Homo sapiens, UniProt P06493); test: Inhibition of CDK1 (unknown origin)
[9] = biological target: Cyclin-dependent kinase 2 (Homo sapiens, UniProt P24941); test: Inhibition of CDK2 (unknown origin)
[10] = biological target: Cyclin-dependent kinase 9 (Homo sapiens, UniProt P50750); test: Inhibition of CDK9 (unknown origin)
[11] = Aqueous solubility of compound at pH 4; type: physicochemical
[12] = system: MV4-11; test: Antitumor activity against human MV4-11 cells xenografted in mouse assessed as tumor growth inhibition at 10 mg/kg, iv measured upto 28 days; type: functional; conditions: MV4-11, 672 h, time <= 28 day, read-out: TGI
[13] = Toxicity in mouse assessed as change in body weight at 10 mg/kg, iv measured upto 28 days; type: organism-based; conditions: in vivo, 672 h, time < 28 day
[14] = system: MV4-11; test: Antitumor activity against human MV4-11 cells xenografted in iv dosed mouse assessed as reduction in pol II CTD level in tumor measured upto 24 hrs by Western blot analysis; type: functional, organism-based; conditions: dose 5-15 mg/kg
[15] = system: MV4-11; test: Antitumor activity against human MV4-11 cells xenografted in mouse assessed as reduction in MYC level in tumor at 5 to 15 mg/kg, iv measured upto 24 hrs by Western blot analysis; type: functional, organism-based; conditions: dose 5-15 mg/kg
[16] = system: MV4-11; test: Antitumor activity against human MV4-11 cells xenografted in mouse assessed as reduction in Mcl1 level in tumor at 5 to 15 mg/kg, iv measured upto 24 hrs by Western blot analysis; type: functional, organism-based; conditions: dose 5-15 mg/kg
[17] = system: MV4-11; test: Antitumor activity against human MV4-11 cells xenografted in mouse assessed as upregulation of caspase-3 level in tumor at 5 to 15 mg/kg, iv by Western blot analysis; type: functional, organism-based; conditions: dose 5-15 mg/kg, time <= 24.0 hrs
[18] = Plasma protein binding in human; type: ADME, cell-free; conditions: read-out: PPB (converted)
[19] = Permeability across apical to basolateral side in human Caco-2 cells; type: ADME, cell-based; conditions: read-out: permeability
[20] = Permeability across basolateral to apical side in human Caco-2 cells; type: ADME, cell-based; conditions: read-out: permeability
[21] = Efflux ratio of permeability basolateral to apical side over apical to basolateral side in human Caco-2 cells; type: ADME, cell-based
[22] = Metabolic stability in human hepatocytes assessed as half life; type: ADME, cell-based, Hepatocyte
[23] = Metabolic stability in monkey hepatocytes assessed as half life; type: ADME, cell-based, Macaca mulatta, Hepatocyte; conditions: rhesus monkey
[24] = Metabolic stability in dog hepatocytes assessed as half life; type: ADME, cell-based, Canis lupus familiaris, Hepatocyte
[25] = Metabolic stability in rat hepatocytes assessed as half life; type: ADME, cell-based, Hepatocyte
[26] = Metabolic stability in mouse hepatocytes assessed as half life; type: ADME, cell-based, Hepatocyte
[27] = biological target: T1, Cytochrome P450 3A4 (Homo sapiens, UniProt P08684); test: Inhibition of CYP3A4 (unknown origin); type: ADME
[28] = biological target: T2, Cytochrome P450 2D6 (Homo sapiens, UniProt P10635); test: Inhibition of CYP2D6 (unknown origin); type: ADME
[29] = biological target: T3, Cytochrome P450 2C19 (Homo sapiens, UniProt P33261); test: Inhibition of CYP2C19 (unknown origin); type: ADME
[30] = biological target: T4, Cytochrome P450 2C9 (Homo sapiens, UniProt P11712); test: Inhibition of CYP2C9 (unknown origin); type: ADME
[31] = biological target: T5, Cytochrome P450 2C8 (Homo sapiens, UniProt P10632); test: Inhibition of CYP2C8 (unknown origin); type: ADME
T5 sequence (P10632 whole entry): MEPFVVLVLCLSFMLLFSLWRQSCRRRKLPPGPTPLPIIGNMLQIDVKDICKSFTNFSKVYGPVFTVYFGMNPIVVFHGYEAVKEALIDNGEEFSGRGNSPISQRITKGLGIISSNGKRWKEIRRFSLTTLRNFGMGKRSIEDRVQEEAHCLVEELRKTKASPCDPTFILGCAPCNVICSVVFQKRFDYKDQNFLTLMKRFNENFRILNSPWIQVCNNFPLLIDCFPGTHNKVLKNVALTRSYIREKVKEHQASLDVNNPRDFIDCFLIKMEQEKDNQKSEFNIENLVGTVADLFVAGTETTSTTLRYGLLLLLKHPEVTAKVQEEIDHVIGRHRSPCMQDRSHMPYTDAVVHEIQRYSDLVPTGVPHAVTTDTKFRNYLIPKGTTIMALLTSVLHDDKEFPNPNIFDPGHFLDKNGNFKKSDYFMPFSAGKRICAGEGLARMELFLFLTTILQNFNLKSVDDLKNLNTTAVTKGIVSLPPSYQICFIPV

[32] = biological target: T6, Cytochrome P450 2B6 (Homo sapiens, UniProt P20813); test: Inhibition of CYP2B6 (unknown origin); type: ADME
T6 sequence (P20813 whole entry): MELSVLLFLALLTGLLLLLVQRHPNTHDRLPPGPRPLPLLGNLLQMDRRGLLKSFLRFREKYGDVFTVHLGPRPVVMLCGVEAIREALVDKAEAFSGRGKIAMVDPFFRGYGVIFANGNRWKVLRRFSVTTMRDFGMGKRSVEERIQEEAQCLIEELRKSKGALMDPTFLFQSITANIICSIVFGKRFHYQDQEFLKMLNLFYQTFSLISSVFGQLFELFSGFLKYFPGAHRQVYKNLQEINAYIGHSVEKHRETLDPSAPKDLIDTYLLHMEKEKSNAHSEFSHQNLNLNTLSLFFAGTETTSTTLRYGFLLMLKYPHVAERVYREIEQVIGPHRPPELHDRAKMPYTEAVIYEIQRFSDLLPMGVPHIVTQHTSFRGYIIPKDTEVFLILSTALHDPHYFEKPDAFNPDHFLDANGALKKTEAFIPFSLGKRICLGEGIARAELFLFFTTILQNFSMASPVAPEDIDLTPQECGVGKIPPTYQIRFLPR

[33] = biological target: T7, Cytochrome P450 1A2 (Homo sapiens, UniProt P05177); test: Inhibition of CYP1A2 (unknown origin); type: ADME
T7 sequence (P05177 whole entry): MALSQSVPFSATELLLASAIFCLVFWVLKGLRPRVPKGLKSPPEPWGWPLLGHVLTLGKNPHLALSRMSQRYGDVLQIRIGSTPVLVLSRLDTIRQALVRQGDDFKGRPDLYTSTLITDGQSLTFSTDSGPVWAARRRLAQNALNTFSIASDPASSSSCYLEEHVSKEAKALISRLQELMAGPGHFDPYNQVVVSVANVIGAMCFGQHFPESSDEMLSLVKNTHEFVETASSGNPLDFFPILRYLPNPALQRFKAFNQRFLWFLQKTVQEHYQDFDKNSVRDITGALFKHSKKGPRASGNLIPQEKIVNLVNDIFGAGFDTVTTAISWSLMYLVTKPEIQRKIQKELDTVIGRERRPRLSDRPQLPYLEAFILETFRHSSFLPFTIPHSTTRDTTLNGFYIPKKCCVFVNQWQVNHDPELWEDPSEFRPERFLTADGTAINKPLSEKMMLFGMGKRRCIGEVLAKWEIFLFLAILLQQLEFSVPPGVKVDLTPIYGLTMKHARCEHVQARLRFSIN

[34] = biological target: T1, Cytochrome P450 3A4; test: Time dependent inhibition of CYP3A4 (unknown origin); type: ADME
[35] = biological target: T4, Cytochrome P450 2C9; test: Time dependent inhibition of CYP2C9 (unknown origin); type: ADME
[36] = biological target: T3, Cytochrome P450 2C19; test: Time dependent inhibition of CYP2C19 (unknown origin); type: ADME
[37] = biological target: T2, Cytochrome P450 2D6; test: Time dependent inhibition of CYP2D6 (unknown origin); type: ADME
[38] = biological target: T5, Cytochrome P450 2C8; test: Time dependent inhibition of CYP2C8 (unknown origin); type: ADME
[39] = biological target: T7, Cytochrome P450 1A2; test: Time dependent inhibition of CYP1A2 (unknown origin); type: ADME
[40] = biological target: T1, Cytochrome P450 3A4; test: Induction of CYP3A4 (unknown origin); type: ADME
[41] = system: SNU-16; test: Antitumor activity against human SNU-16 cells xenografted in iv dosed mouse assessed as tumor growth inhibition; type: functional, organism-based; conditions: dose 5-15 mg/kg
[42] = Volume of distribution in Sprague-Dawley rat at 4 mg/kg, iv; type: ADME, organism-based; conditions: in vivo
[43] = Volume of distribution in Beagle dog at 1 mg/kg, iv; type: ADME, organism-based, Canis lupus familiaris; conditions: in vivo
[44] = Clearance in Sprague-Dawley rat at 4 mg/kg, iv; type: ADME, organism-based; conditions: in vivo
[45] = Clearance in Beagle dog at 1 mg/kg, iv; type: ADME, organism-based, Canis lupus familiaris; conditions: in vivo
[46] = Half life in Sprague-Dawley rat at 4 mg/kg, iv; type: ADME, organism-based; conditions: in vivo
[47] = Half life in Beagle dog at 1 mg/kg, iv; type: ADME, organism-based, Canis lupus familiaris; conditions: in vivo
[48] = AUC (0 to 24 hrs) in Sprague-Dawley rat at 4 mg/kg, iv; type: ADME, organism-based; conditions: in vivo
[49] = AUC (0 to 24 hrs) in Beagle dog at 1 mg/kg, iv; type: ADME, organism-based, Canis lupus familiaris; conditions: in vivo
[50] = biological target: Voltage-gated inwardly rectifying potassium channel KCNH2 (Homo sapiens, UniProt Q12809); test: Inhibition of hERG upto 30 uM; type: toxicity
Sequence of Voltage-gated inwardly rectifying potassium channel KCNH2 (Q12809 whole entry): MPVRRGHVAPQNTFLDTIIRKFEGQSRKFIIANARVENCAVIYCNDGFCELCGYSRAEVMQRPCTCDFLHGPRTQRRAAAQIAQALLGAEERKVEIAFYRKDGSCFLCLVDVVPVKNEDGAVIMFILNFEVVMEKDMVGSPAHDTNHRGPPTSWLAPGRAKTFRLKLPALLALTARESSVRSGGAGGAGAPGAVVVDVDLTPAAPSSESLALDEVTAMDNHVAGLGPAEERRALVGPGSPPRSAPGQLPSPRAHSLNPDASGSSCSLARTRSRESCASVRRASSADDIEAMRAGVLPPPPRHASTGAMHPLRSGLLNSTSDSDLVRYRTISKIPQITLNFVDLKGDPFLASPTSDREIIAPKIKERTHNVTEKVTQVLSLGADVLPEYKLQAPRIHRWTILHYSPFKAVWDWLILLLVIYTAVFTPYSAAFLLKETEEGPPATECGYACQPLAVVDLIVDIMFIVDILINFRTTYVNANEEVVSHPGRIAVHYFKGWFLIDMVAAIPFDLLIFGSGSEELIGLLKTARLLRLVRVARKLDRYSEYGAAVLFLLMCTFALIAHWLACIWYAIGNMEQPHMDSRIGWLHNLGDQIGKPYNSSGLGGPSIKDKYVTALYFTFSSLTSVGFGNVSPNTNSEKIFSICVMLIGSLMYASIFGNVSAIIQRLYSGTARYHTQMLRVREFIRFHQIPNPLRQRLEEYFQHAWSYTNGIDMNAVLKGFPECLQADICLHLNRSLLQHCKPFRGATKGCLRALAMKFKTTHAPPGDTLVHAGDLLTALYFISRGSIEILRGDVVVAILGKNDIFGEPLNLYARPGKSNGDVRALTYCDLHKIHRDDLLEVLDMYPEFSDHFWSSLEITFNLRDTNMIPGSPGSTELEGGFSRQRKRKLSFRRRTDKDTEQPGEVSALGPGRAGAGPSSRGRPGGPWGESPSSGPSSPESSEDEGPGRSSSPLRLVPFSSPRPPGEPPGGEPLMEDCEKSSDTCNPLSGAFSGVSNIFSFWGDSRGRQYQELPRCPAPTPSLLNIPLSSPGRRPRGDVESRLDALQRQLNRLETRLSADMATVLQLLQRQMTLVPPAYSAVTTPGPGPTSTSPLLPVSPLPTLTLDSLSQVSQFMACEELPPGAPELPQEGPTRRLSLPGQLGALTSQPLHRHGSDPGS

T1 sequence (P08684 whole entry): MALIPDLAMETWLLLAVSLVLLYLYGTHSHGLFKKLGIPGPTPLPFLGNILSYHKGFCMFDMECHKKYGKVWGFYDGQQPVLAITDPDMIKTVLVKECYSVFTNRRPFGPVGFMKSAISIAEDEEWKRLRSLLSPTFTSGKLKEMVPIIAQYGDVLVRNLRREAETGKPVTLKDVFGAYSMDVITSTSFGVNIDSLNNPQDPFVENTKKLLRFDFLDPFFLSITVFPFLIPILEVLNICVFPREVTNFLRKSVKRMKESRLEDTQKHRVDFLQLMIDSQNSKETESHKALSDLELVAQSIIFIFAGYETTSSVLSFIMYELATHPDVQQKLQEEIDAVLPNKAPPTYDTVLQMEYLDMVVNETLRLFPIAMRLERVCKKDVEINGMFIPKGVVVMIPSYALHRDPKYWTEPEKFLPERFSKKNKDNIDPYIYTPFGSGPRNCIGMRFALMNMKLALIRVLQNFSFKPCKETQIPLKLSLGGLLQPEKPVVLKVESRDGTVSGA
T4 sequence (P11712 whole entry): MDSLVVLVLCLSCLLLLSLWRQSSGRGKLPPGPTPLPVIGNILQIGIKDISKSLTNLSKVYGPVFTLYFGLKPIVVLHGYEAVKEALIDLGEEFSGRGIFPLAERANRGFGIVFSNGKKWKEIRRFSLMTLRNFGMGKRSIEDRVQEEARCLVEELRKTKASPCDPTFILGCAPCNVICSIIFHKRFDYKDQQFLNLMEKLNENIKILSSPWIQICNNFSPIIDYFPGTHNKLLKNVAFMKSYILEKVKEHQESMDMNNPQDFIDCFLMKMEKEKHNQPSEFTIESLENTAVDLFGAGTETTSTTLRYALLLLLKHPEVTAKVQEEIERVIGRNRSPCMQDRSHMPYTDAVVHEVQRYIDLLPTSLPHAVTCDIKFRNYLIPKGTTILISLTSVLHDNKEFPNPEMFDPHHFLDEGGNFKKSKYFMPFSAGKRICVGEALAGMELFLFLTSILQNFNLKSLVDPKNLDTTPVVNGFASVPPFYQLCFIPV
T3 sequence (P33261 whole entry): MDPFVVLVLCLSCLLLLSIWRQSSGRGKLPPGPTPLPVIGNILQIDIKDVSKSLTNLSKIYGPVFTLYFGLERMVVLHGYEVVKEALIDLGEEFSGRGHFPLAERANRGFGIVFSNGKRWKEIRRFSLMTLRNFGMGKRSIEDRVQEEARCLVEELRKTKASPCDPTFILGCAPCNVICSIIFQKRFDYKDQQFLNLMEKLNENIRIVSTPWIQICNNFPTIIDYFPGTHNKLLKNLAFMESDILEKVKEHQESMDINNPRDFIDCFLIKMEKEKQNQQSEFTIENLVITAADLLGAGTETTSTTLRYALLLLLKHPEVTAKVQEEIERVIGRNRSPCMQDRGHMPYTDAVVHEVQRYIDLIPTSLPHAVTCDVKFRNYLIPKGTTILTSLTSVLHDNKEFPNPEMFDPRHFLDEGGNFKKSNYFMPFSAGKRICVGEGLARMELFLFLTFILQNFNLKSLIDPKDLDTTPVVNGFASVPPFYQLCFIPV
T2 sequence (P10635 whole entry): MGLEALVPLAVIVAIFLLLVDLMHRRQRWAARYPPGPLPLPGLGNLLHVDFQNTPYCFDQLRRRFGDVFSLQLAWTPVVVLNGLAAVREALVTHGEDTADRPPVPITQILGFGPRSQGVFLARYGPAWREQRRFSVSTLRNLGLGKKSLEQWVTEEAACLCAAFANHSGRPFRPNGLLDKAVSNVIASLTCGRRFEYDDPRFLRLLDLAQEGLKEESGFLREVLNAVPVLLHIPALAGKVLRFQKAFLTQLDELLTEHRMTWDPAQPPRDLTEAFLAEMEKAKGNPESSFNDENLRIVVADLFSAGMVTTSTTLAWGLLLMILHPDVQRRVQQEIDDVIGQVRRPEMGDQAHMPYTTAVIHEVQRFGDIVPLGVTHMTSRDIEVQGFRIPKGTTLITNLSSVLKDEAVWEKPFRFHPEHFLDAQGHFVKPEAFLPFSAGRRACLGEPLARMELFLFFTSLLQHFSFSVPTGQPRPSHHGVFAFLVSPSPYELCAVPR
Sequence of Cyclin-dependent kinase 1 (P06493 whole entry): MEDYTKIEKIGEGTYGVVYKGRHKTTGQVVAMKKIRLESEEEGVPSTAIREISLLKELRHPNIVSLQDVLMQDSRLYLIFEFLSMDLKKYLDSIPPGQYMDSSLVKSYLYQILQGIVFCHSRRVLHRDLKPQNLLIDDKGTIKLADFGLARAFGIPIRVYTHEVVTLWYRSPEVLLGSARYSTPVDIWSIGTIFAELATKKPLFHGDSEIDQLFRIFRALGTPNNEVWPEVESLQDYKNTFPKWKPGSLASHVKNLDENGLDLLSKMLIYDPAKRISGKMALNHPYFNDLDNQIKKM
Sequence of Cyclin-dependent kinase 9 (P50750 whole entry): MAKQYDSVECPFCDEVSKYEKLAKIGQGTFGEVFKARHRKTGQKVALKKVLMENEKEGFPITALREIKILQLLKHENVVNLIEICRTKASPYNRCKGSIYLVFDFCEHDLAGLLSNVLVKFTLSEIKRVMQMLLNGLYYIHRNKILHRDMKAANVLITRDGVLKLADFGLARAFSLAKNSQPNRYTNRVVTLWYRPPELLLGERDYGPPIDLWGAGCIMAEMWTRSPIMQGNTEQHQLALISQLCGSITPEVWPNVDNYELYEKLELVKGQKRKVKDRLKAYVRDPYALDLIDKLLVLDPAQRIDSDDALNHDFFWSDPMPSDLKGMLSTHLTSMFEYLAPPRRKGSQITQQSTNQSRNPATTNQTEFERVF

COCC(C)N1CCC(c2cc3c(-c4cnn(CC5CC5)c4)c(Cl)cnc3[nH]2)CC1 (configuration not stated)
Ratio IC50 [1]: 107 | Ratio IC50 [2]: 41 | IC50 [3]: 52 nM

CC(=O)N[C@@H]1CCC[C@H](C(=O)Nc2cc(-c3cnn4c3CC(C)(C)C4)c(Cl)cn2)C1 [ZEMIRCICLIB]
Vd [4]: 0.52 L/kg | clearance [5]: 78.1 mL/min/kg | half-life [6]: 0.1 h | AUC(0-t) [7]: 0.992 µM·h

Clc1cnc2[nH]c(C3CCNCC3)nc2c1-c1cnn(CC2CC2)c1
Ratio IC50 [2]: 35.5 | IC50 [3]: 464 nM

Cn1cc(-c2c(Cl)cnc3[nH]c(C4CCNCC4)cc23)cn1
IC50 [8]: 428 nM | IC50 [9]: 267 nM | IC50 [10]: 5.9 nM | Ratio IC50 [1]: 72.5 | Ratio IC50 [2]: 45.2 | IC50 [3]: 53.4 nM | solubility [11]: 1500 µg/mL (≈ 4.75 mM) | Vd [4]: 10.2 L/kg | clearance [5]: 115 mL/min/kg | half-life [6]: 1.47 h | AUC(0-t) [7]: 0.916 µM·h | inhibition in vivo at 10 mg/kg [12]: 80% | Activity [13]: Non-toxic | Activity [14]: Dose-dependent-effect | Activity [15]: Active | Activity [16]: Active | Activity [17]: Time-dependent-effect | fraction unbound [18]: 0.711 | Papp A→B [19]: 0.82 ×10⁻⁶ cm/s | Papp B→A [20]: 13.9 ×10⁻⁶ cm/s | efflux ratio [21]: 17 | half-life [22]: > 4.66 h | half-life [23]: 4.4 h | half-life [24]: > 4.66 h | half-life [25]: 3.71 h | half-life [26]: 1.35 h | IC50 [27]: > 100000 nM | IC50 [28]: > 100000 nM | IC50 [29]: 96200 nM | IC50 [30]: > 100000 nM | IC50 [31]: > 100000 nM | IC50 [32]: > 100000 nM | IC50 [33]: 44700 nM | TDI [34]: Not_active | TDI [35]: Not_active | TDI [36]: Not_active | TDI [37]: Not_active | TDI [38]: Not_active | TDI [39]: Not_active | Activity [40]: Not_active | TGI [41]: Dose-dependent-effect; Partial Response Is Observed In 2/8 Mouse At 5 Mg/Kg Group, Partial Response Observed In 6/8 Mouse At 10 Mg/Kg And Partial Response Is Observed In 7/8 Mouse At 15 Mg/Kg Dose Group. | Vd [42]: 11.2 L/kg | Vd [43]: 7.62 L/kg | clearance [44]: 52 mL/min/kg | clearance [45]: 29.1 mL/min/kg | half-life [46]: 3.2 h | half-life [47]: 3.96 h | AUC(0-t) [48]: 1250 ng·h/mL | AUC(0-t) [49]: 568 ng·h/mL | inhibition (INH) [50]: Not_active

COCCN1CCC(c2cc3c(-c4cnn(CC5CC5)c4)c(Cl)cnc3[nH]2)CC1
Ratio IC50 [1]: 146 | Ratio IC50 [2]: 22.1 | IC50 [3]: 63.8 nM
